Columns and labels:
[1] = Chemical forms of radioactivity in tissues by polyacrylamide gel electrophoresis (in vivo stability); details: rats
[2] = Cumulative urinary and fecal excretion of radioactivity over 48 hours; type: in vivo; details: rats, 10 mg/kg i.v., rank among the three oligonucleotides
Protocol: (§1) A dose of 10 mg/kg of [^35S]-labeled PS-oligonucleotide was administered intravenously (i.v.) to rats (Wistar rats from Charles River, Wilmington, Mass.). Following administration, plasma was collected after 5, 15 and 30 minutes and after 1, 3, 6, 12, 24 and 48 hours. Radioactivity levels were measured to monitor plasma clearance at each time point. Following administration of PS-oligonucleotide, animals (3 rats/group) were sacrificed at 12, 24 and 48 hours. The following tissues were removed and homogenized: muscle, lung, liver, kidney, and spleen. Radioactive levels were measured, to monitor tissue distribution of each of the oligonucleotides. To follow the excretion of PS-oligonucleotides, urine and feces were collected using metabolism cages at 0-3, 3-6, 6-12, 12-24 and 24-48 hour intervals and radioactivity levels were measured using the methods previously reported (Zhang, et al., Biochem. Pharmacol., 49: 929-939 (1995)).
FIGS. 9 and 10 show the cumulative excretion of urinary and fecal radioactivity over 48 hours following administration of radiolabeled oligonucleotides. Urinary excretion represented the major pathway of elimination. […] Oligonucleotide HYB0411 had the lowest urinary excretion rate and Oligonucleotide HYB0413 had the highest urinary excretion rate. Fecal excretion was a minor pathway of elimination (FIG. 11); Oligonucleotide HYB0413 had the highest fecal excretion rate.

[3] = Tissue distribution of radioactivity after i.v. bolus administration of radiolabeled oligonucleotides; type: in vivo; details: rats
From the text: (§2) To carry out pharmacokinetic studies, [^35S]-labeled PS-oligonucleotides were synthesized using phosphoramidite chemistry; the intermediate phosphite linkage was oxidized with [^35S8] to incorporate [^35S]. (Agrawal, et al., Synthetic Methods for the Radioisotopic Labeling of Oligonucleotides, in: Antisense Oligonucleotide from Technology to Therapy (Schlingensiepen, ed.) Blackwell, Berlin, pp. 60-77 (1996)). [^35S] was incorporated at the fifth (oligonucleotide HYB0411) or fourth (oligonucleotide HYB0412 and HYB0413) internucleotide linkage.
as §1
The oligonucleotide-equivalent concentrations of radioactivity in tissues after i.v. bolus administration of radiolabeled oligonucleotides to rats are shown in FIGS. 4-8. […] Significant differences in distribution pattern were found among the three oligonucleotides. […] Oligonucleotide HYB0411 had the highest kidney concentration: 40% higher than that of Oligonucleotides HYB0412 and HYB0413.

[4] = Plasma pharmacokinetics of [35S]-labeled PS-oligonucleotides after i.v. bolus administration; type: in vivo; details: rats, 10 mg/kg i.v.; for maximum plasma concentration (Cmax): radioactivity, compared with Oligonucleotide HYB0413
From the text: as §2, §1
FIG. 3 illustrates the plasma concentration-time courses of oligonucleotide equivalents after i.v. bolus administration of radiolabeled oligonucleotides into rats, based on quantification of radioactivity. As shown in previous studies (Agrawal, et al., Clin. Pharm. 28:7-16 (1995); Zhang, et al., Biochem. Pharmacol., 49: 929-939 (1995)), PS-oligonucleotides rapidly clear from the plasma. […] No significant difference in plasma elimination half-life (t½β) was observed.

5′-CTCTCGCACCCATCTCTCTCCTTCTGGGG-3′ (all phosphorothioate, sugars by position and methylation of C not given here) [Oligonucleotide HYB0411]
degradation in the kidney ([1]; kidney tissue, PAGE after 5'-post labeling): time-dependent degradation | urinary excretion rate [2]: lowest | liver concentration, higher than Oligonucleotide HYB0413 ([3]; 10 mg/kg i.v.): approximately 50% | kidney concentration, higher than that of Oligonucleotides HYB0412 and HYB0413 ([3]; 10 mg/kg i.v., highest kidney concentration): 40% | maximum plasma concentration (Cmax) [4]: significantly higher | distribution half-life (t½α) ([4]; compared with Oligonucleotides HYB0412 and HYB0413): shorter

5′-CTCTCGCACCCATCTCTCTCCTTCT-3′ [Oligonucleotide HYB0413, reference compound]
fecal excretion rate [2]: highest | urinary excretion rate [2]: highest | lung concentration ([3]; 10 mg/kg i.v., compared with HYB0411 and HYB0412): significantly higher concentrations | tissue concentrations in the tissues examined (in general) ([3]; 10 mg/kg i.v., comparison among the three oligonucleotides): different from those of Oligonucleotide HYB0411 and Oligonucleotide HYB0412 | bone marrow concentration ([3]; 12 hours after dosing, compared with HYB0411 and HYB0412, data not shown): higher concentrations

5′-CTCTCGCACCCATCTCTCTCCTTCTGTGT-3′ [Oligonucleotide HYB0412]
in vivo stability ([1]; b74 compared with Oligonucleotide HYB0411, b75 compared with control oligonucleotide): superior in vivo stability | absorption ([1]; compared with Oligonucleotide HYB0411): greater absorption | liver concentration, higher than Oligonucleotide HYB0413 ([3]; 10 mg/kg i.v.): approximately 50% | maximum plasma concentration (Cmax) [4]: significantly higher

From patent US6489304B2, “Hyperstructure-forming carriers” (Hybridon, Inc., priority 1997, dated 2002)
